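Protocol summary: plate cells (96-well), add compound at 5 concentrations, incubate 48 h, interpolate endpoints linearly. GI50 marks 50% less growth.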 Calls of active or inactive are those of the source. No stated cut-off is given here; in the data, active = GI50 up to about 1.1 µM and inactive = higher.
How the values were obtained:
Experiment in all cases: inhibition of tumour cell growth, NCI panel, 48 h
A549 = system: A549
BT-549 = system: BT-549
CAKI-1 = system: CAKI-1
EKVX = system: EKVX
HCT-116 = system: HCT-116
Hs-578T = system: Hs-578T
IGROV-1 = system: IGROV-1
MDA-MB-231 = system: MDA-MB-231
Malme-3M = system: Malme-3M
NCI-H226 = system: NCI-H226
NCI-H23 = system: NCI-H23
NCI-H460 = system: NCI-H460
OVCAR-4 = system: OVCAR-4
PC-3 = system: PC-3
RPMI-8226 = system: RPMI-8226
SF-268 = system: SF-268
SK-MEL-28 = system: SK-MEL-28
SK-OV-3 = system: SK-OV-3
SN12C = system: SN12C
SR = system: SR

Compound	GI50 (A549)	GI50 (BT-549)	GI50 (CAKI-1)	GI50 (EKVX)	GI50 (HCT-116)	GI50 (Hs-578T)	GI50 (IGROV-1)	GI50 (MDA-MB-231)	GI50 (Malme-3M)	GI50 (NCI-H226)	GI50 (NCI-H23)	GI50 (NCI-H460)	GI50 (OVCAR-4)	GI50 (PC-3)	GI50 (RPMI-8226)	GI50 (SF-268)	GI50 (SK-MEL-28)	GI50 (SK-OV-3)	GI50 (SN12C)	GI50 (SR)
Cc1ccc(SC2=C(N(C)C)C(=O)c3ccccc3C2=O)cc1	12.6 µM (inactive)	6.43 µM (inactive)	1.53 µM (inactive)	6.71 µM (inactive)	1.1 µM (active)	4.85 µM (inactive)	4.95 µM (inactive)	4.24 µM (inactive)	4.83 µM (inactive)	9.82 µM (inactive)	1.82 µM (inactive)	6.3 µM (inactive)	4.06 µM (inactive)	4.11 µM (inactive)	2.54 µM (inactive)	4.76 µM (inactive)	10.3 µM (inactive)	10.7 µM (inactive)	4.92 µM (inactive)	0.631 µM (active)
CC(C)C(/N=C/c1ccccc1O)C(=O)O (stereo not given)	> 100 µM (inactive)	> 100 µM (inactive)	> 100 µM (inactive)	> 100 µM (inactive)	> 100 µM (inactive)	59.2 µM (inactive)	> 100 µM (inactive)	87.9 µM (inactive)	55.3 µM (inactive)	> 100 µM (inactive)	> 100 µM (inactive)	> 100 µM (inactive)	> 100 µM (inactive)	87.7 µM (inactive)	> 100 µM (inactive)	> 100 µM (inactive)	> 100 µM (inactive)	> 100 µM (inactive)	> 100 µM (inactive)	> 100 µM (inactive)
Cc1ccc(C2SC(=N)Nc3c2c(C)nn3C(=O)c2ccc(Cl)cc2)cc1 (stereo not given)	> 10 µM (inactive)	> 10 µM (inactive)	> 10 µM (inactive)	> 10 µM (inactive)	> 10 µM (inactive)	> 10 µM (inactive)	> 10 µM (inactive)	> 10 µM (inactive)	> 10 µM (inactive)	> 10 µM (inactive)	> 10 µM (inactive)	> 10 µM (inactive)	> 10 µM (inactive)	> 10 µM (inactive)	> 10 µM (inactive)	> 10 µM (inactive)	> 10 µM (inactive)	> 10 µM (inactive)	> 10 µM (inactive)	> 10 µM (inactive)
CC(C)OC(=O)C1(C(C)C)CCc2ccc(C(=O)CCC(=O)O)cc21 (stereo not given)	> 100 µM (inactive)	> 100 µM (inactive)	> 100 µM (inactive)	> 100 µM (inactive)	> 100 µM (inactive)	> 100 µM (inactive)	> 100 µM (inactive)	> 100 µM (inactive)	> 100 µM (inactive)	> 100 µM (inactive)	> 100 µM (inactive)	> 100 µM (inactive)	> 100 µM (inactive)	> 100 µM (inactive)	> 100 µM (inactive)	> 100 µM (inactive)	> 100 µM (inactive)	> 100 µM (inactive)	> 100 µM (inactive)	> 100 µM (inactive)
CCOC(=O)/C(=C\Nc1c(C)n(C)n(-c2ccccc2)c1=O)C(=O)c1ccccc1	> 100 µM (inactive)	> 100 µM (inactive)	> 100 µM (inactive)	> 100 µM (inactive)	> 100 µM (inactive)	> 100 µM (inactive)	> 100 µM (inactive)	> 100 µM (inactive)	> 100 µM (inactive)	> 100 µM (inactive)	> 100 µM (inactive)	> 100 µM (inactive)	> 100 µM (inactive)	> 100 µM (inactive)	> 100 µM (inactive)	> 100 µM (inactive)	> 100 µM (inactive)	> 100 µM (inactive)	> 100 µM (inactive)	> 100 µM (inactive)
COc1ccc2c(c1)c1nn(CCN3CCCCC3)c3ccc4c(=O)n(CCN(C)C)c(=O)n2c4c13	< 0.01 µM (active)	0.245 µM (active)	0.0219 µM (active)	< 0.0142 µM (active)	< 0.01 µM (active)	< 0.0325 µM (active)	< 0.01 µM (active)	< 0.0119 µM (active)	0.0619 µM (active)	0.0231 µM (active)	< 0.022 µM (active)	< 0.01 µM (active)	< 0.01 µM (active)	0.019 µM (active)	< 0.01 µM (active)	< 0.01 µM (active)	0.139 µM (active)	0.565 µM (active)	< 0.01 µM (active)	< 0.01 µM (active)
CC(C)=CC(O)C/C(C)=C/CC/C(C)=C/CCC1(C)C(CCCO)/C(=C(/C)C=O)CCC1(C)O (stereo not given)	28.4 µM (inactive)	40.6 µM (inactive)	41.9 µM (inactive)	27.5 µM (inactive)	40 µM (inactive)	35.6 µM (inactive)	24.8 µM (inactive)	24.7 µM (inactive)	34 µM (inactive)	74.3 µM (inactive)	20 µM (inactive)	25.6 µM (inactive)	25.5 µM (inactive)	44.8 µM (inactive)	21.3 µM (inactive)	40.5 µM (inactive)	29.6 µM (inactive)	47.8 µM (inactive)	31.9 µM (inactive)	37 µM (inactive)
CN(CCCNC(=O)c1cc(-c2ccccc2)nc2ccccc12)CCCNC(=O)c1cc(-c2ccccc2)nc2ccccc12	3.96 µM (inactive)	12.9 µM (inactive)	9.16 µM (inactive)	6.1 µM (inactive)	1.79 µM (inactive)	4.17 µM (inactive)	4.41 µM (inactive)	2.44 µM (inactive)	1.94 µM (inactive)	3.81 µM (inactive)	6.35 µM (inactive)	1.78 µM (inactive)	3.54 µM (inactive)	3.56 µM (inactive)	2.8 µM (inactive)	5.32 µM (inactive)	1.83 µM (inactive)	13 µM (inactive)	5.85 µM (inactive)	3.36 µM (inactive)
COC1/C=C/C(C)C(O)CC(O)/C=C/C(C)C(C(C)C(OC)C(C)CCC(=O)C(C)C(C/C=C/N(C)C=O)OC)OC(=O)/C=C/C=C(\C)CC(OC)CC2=CC(=O)O[C@@H](C(C)C(OC)C1)[C@H]2O (stereo not given in full)	0.00507 µM (active)	0.0311 µM (active)	< 0.005 µM (active)	0.0298 µM (active)	< 0.005 µM (active)	0.00879 µM (active)	0.0113 µM (active)	< 0.005 µM (active)	< 0.005 µM (active)	< 0.005 µM (active)	0.011 µM (active)	< 0.005 µM (active)	0.0267 µM (active)	< 0.005 µM (active)	0.00783 µM (active)	0.0233 µM (active)	0.00588 µM (active)	< 0.005 µM (active)	< 0.005 µM (active)	0.00736 µM (active)
CC1(c2ccc(Cl)cc2)CC(c2ccc(Cl)cc2)=C(C#N)C(=C(C#N)C#N)N1 (stereo not given)	20.4 µM (inactive)	19.4 µM (inactive)	16.8 µM (inactive)	17.9 µM (inactive)	14.6 µM (inactive)	19.9 µM (inactive)	14.7 µM (inactive)	22.5 µM (inactive)	15.7 µM (inactive)	18.5 µM (inactive)	17.3 µM (inactive)	22.9 µM (inactive)	14.8 µM (inactive)	16.4 µM (inactive)	8.77 µM (inactive)	7.83 µM (inactive)	32.7 µM (inactive)	16.9 µM (inactive)	15 µM (inactive)	11.5 µM (inactive)
COC1/C=C\C=C(/C)C(=O)NC2=CC(=O)C(N)=C(CC(C)CC(OC)C(O)C(C)C=C(C)C1OC(N)=O)C2=O (stereo not given)	0.0216 µM (active)	11.8 µM (inactive)	0.977 µM (active)	3.97 µM (inactive)	0.0233 µM (active)	< 0.01 µM (active)	0.0318 µM (active)	< 0.0187 µM (active)	0.0231 µM (active)	5.87 µM (inactive)	< 0.0212 µM (active)	< 0.01 µM (active)	4.07 µM (inactive)	0.293 µM (active)	0.195 µM (active)	0.419 µM (active)	< 0.0266 µM (active)	< 0.0123 µM (active)	0.017 µM (active)	0.0161 µM (active)
CN(C)c1n/c(=N/Cc2ccncc2)ss1	> 10 µM (inactive)	19.8 µM (inactive)	31.5 µM (inactive)	> 71.9 µM (inactive)	20.5 µM (inactive)	23.6 µM (inactive)	> 75.5 µM (inactive)	37.8 µM (inactive)	18.5 µM (inactive)	> 100 µM (inactive)	17.5 µM (inactive)	> 100 µM (inactive)	18.7 µM (inactive)	26.1 µM (inactive)	21 µM (inactive)	46.2 µM (inactive)	36.8 µM (inactive)	> 40 µM (inactive)	19.6 µM (inactive)	6.4 µM (inactive)
Cc1cc(=O)oc2cc(SC(=O)N(C)C)ccc12	> 100 µM (inactive)	> 100 µM (inactive)	> 100 µM (inactive)	61 µM (inactive)	> 100 µM (inactive)	> 100 µM (inactive)	> 100 µM (inactive)	> 100 µM (inactive)	> 100 µM (inactive)	> 100 µM (inactive)	> 100 µM (inactive)	> 100 µM (inactive)	> 100 µM (inactive)	> 100 µM (inactive)	> 100 µM (inactive)	> 100 µM (inactive)	> 100 µM (inactive)	> 100 µM (inactive)	> 100 µM (inactive)	> 100 µM (inactive)
C/C(=C\CSCC(N)C(=O)O)CC/C=C(\C)CNc1ccccc1 (stereo not given)	> 100 µM (inactive)	64.1 µM (inactive)	> 100 µM (inactive)	> 100 µM (inactive)	> 100 µM (inactive)	> 100 µM (inactive)	> 100 µM (inactive)	> 100 µM (inactive)	> 100 µM (inactive)	> 100 µM (inactive)	> 100 µM (inactive)	> 100 µM (inactive)	> 100 µM (inactive)	> 100 µM (inactive)	0.421 µM (active)	> 100 µM (inactive)	> 100 µM (inactive)	> 100 µM (inactive)	> 100 µM (inactive)	> 100 µM (inactive)

— ChEMBL document CHEMBL1201862, “PubChem BioAssay data set” (2004)
